We go through 24 compounds from US10604511B2, “N-[(pyrazinyloxy)propanyl]benzamides as antagonists of orexin subtype 1 receptor activity” (Boehringer Ingelheim International GmbH, priority 2016, dated 2020).

Where two headings read alike, the source gives them in different places. A value given as a limit tells only on which side of the number the result lay.

In one series the target is T1, human Orexin 1 receptor (Homo sapiens, UniProt O43613).
T1 construct: stably expressing the full-length human Orexin 1 receptor; expressed in transfected cells; host or cells: CHO-K1 (CHO-K1/hOx1)
T1 sequence (O43613 1-425): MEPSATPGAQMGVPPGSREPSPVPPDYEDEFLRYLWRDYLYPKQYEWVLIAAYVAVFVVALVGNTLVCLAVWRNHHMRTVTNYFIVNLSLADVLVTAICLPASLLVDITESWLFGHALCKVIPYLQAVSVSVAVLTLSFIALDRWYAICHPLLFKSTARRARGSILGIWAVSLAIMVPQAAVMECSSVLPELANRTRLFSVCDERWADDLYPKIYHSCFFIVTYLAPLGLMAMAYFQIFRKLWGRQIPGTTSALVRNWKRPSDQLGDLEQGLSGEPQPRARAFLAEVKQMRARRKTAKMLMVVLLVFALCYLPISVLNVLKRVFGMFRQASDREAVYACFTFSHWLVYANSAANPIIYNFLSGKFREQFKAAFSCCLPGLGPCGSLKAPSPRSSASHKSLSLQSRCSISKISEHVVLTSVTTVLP
The series is described as follows: Assay A: in vitro testing of OX1R potency, OX1R IP1. The series is classed as cell-based. To be noted: Table 3, read-out: Assay A OX1R Kb [nM] (Orexin A concentration). From the text: Chem. Genomics 2009, 3, 22-32. […] AssayExplorer (Accelrys). […] Sci. 1993, 14(4), 110-112).

Series [1] addresses T2, OX2R (Homo sapiens, UniProt O43614).
T2 sequence (O43614 1-444): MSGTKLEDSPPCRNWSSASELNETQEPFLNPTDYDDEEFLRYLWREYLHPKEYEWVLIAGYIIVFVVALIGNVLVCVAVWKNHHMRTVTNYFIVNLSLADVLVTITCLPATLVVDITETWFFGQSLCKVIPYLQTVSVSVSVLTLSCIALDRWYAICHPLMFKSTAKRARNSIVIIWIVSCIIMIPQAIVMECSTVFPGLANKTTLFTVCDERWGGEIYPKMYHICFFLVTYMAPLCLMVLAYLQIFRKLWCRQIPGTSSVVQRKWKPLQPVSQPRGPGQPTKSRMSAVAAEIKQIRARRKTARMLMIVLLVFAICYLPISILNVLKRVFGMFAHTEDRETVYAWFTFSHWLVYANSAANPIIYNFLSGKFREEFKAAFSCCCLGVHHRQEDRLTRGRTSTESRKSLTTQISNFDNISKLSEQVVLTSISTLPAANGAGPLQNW
Nature of the series: OX2R in vitro potency as reported in WO2016/034882. The series is classed as cell-based. To be noted: Table 1 of WO2016/034882.

Series [2] addresses T2, OX2R. To be noted: Table 3 of WO2016/034882, cited from earlier work.
A short description of series [3]: Assay C: metabolic stability in human liver microsomes (human MST). It counts as in vitro ADME. To be noted: for half-life at 1 μM: pH 7.6, pooled human liver microsomes, 1 μM test compound, 37° C., read-out: Assay C: Human MST t1/2; for stability in human liver microsomes compared with closest prior art compounds in WO2016/034882 (in words): versus closest prior art examples of WO2016/034882. As to the method: C. Assessment of Metabolic Stability in Human Liver Microsomes (Human MST) The metabolic stability of the compounds according to the invention may be investigated as follows: The metabolic degradation of the test compound is assayed at 37° C. with pooled human liver microsomes. The final incubation volume of 100 μL per time point contains TRIS buffer pH 7.6 at room temperature (0.1 M), MgCl2 (5 mM), microsomal protein (1 mg/mL) and the test compound at a final concentration of 1 μM. Following a short pre-incubation period at 37° C., the reactions are initiated by addition of beta-nicotinamide adenine dinucleotide phosphate, reduced form (NADPH, 1 mM), and terminated by transferring an aliquot into solvent after different time points. After centrifugation (10000 g, 5 min), an aliquot of the supernatant is assayed by LC-MS/MS for the amount of parent compound. The half-life (t1/2) is determined by the slope of the semi-logarithmic plot of the concentration-time profile.

Regarding `CC[C@@H](CNc1cnc(C(F)(F)F)cn1)N(C)C(=O)c1cc(Cl)ccc1-n1nccn1` [Ex 40 in WO2016/ 034882, reference compound], the Kb on human Orexin 1 receptor (0.5 nM Orexin A) is 0.73 nM. At OX2R [1], the “OX2R IC50/OX1R IC50” value is listed as “Table 1: 156”.

With `CC[C@@H](CNc1cnc(C(F)(F)F)cn1)N(CC)C(=O)c1nc(C)ccc1-n1nccn1` [Ex 70 in WO2016/ 034882], the “OX2R pIC50” value at OX2R [2] is 5.3. Further, the IC50 on OX2R [2] (read-out: OX2R IC50 (corresponds to pIC50) (converted)) is greater than 5000 nM. Further, the Kb at human Orexin 1 receptor (50 nM Orexin A) is 0.14 nM. In series [3], the half-life at 1 μM worked out at 0.333 h.

Take `CCN(C(=O)c1ccccc1-n1nccn1)[C@@H](C)COc1cnc(C(F)(F)F)cn1` [Example 1]: the Kb at human Orexin 1 receptor (0.5 nM Orexin A) was found to be 0.97 nM. Further, the half-life at 1 μM in series [3] was greater than 2.17 h.

With `CCN(C(=O)c1ccc(F)cc1-n1nccn1)[C@@H](C)COc1cnc(C(F)(F)F)cn1` [Example 2], at human Orexin 1 receptor (0.5 nM Orexin A), the Kb stood at 4.5 nM. Also, the half-life at 1 μM in series [3] is greater than 2.17 h.

With `CCN(C(=O)c1cc(F)ccc1-n1nccn1)[C@@H](C)COc1cnc(C(F)(F)F)cn1` [Example 3], at human Orexin 1 receptor (0.5 nM Orexin A), the Kb was 2.1 nM. Besides, the half-life at 1 μM in series [3] is greater than 2.17 h.

Turning to `CCN(C(=O)c1cc(F)c(F)cc1-n1nccn1)[C@@H](C)COc1cnc(C(F)(F)F)cn1` [Example 4], the Kb at human Orexin 1 receptor (0.5 nM Orexin A) is 5.5 nM. In series [3], the half-life at 1 μM was greater than 2.17 h.

In the case of `CCN(C(=O)c1cc(F)cc(F)c1-n1nccn1)[C@@H](C)COc1cnc(C(F)(F)F)cn1` [Example 6], at human Orexin 1 receptor (0.5 nM Orexin A), the Kb turned out to be 3 nM. The half-life at 1 μM in series [3] was greater than 2.17 h.

In the case of `CCN(C(=O)c1cc(C(F)(F)F)ccc1-n1nccn1)[C@@H](C)COc1cnc(C(F)(F)F)cn1` [Example 7], the Kb at human Orexin 1 receptor (0.5 nM Orexin A) was 13 nM. In series [3], the half-life at 1 μM is greater than 2.17 h.

For the compound `CCN(C(=O)c1cc(OC)ccc1-n1nccn1)[C@@H](C)COc1cnc(C(F)(F)F)cn1` [Example 8], the Kb on human Orexin 1 receptor (50 nM Orexin A) was found to be 0.8 nM. For the same compound, the half-life at 1 μM in series [3] came out at 1.22 h.

As to `CCN(C(=O)c1ccccc1-n1cccn1)[C@@H](C)COc1cnc(C(F)(F)F)cn1` [Example 9], the Kb on human Orexin 1 receptor (0.5 nM Orexin A) was found to be 5.4 nM. Besides, the half-life at 1 μM in series [3] was determined as 0.417 h.

Consider `CCN(C(=O)c1ccc(C)cc1-n1nccn1)[C@@H](C)COc1cnc(C(F)(F)F)cn1` [Example 10], for which the Kb at human Orexin 1 receptor (50 nM Orexin A) amounted to 0.44 nM. In series [3], the half-life at 1 μM is 1.33 h and the “stability in human liver microsomes compared with closest prior art compounds in WO2016/034882 (in words)” value was “markedly improved stability”.

Consider `CCN(C(=O)c1cccc(F)c1-c1nnc(C)o1)[C@@H](C)COc1cnc(C(F)(F)F)cn1` [Example 12], for which the Kb on human Orexin 1 receptor (0.5 nM Orexin A) is 12 nM. In series [3], the half-life at 1 μM was greater than 2.17 h.

Regarding `CCN(C(=O)c1ccc(C)cc1-c1nnc(C)o1)[C@@H](C)COc1cnc(C(F)(F)F)cn1` [Example 14], the Kb on human Orexin 1 receptor (0.5 nM Orexin A) came out at 4.6 nM. Also, the half-life at 1 μM in series [3] came to 1.48 h.

Regarding `CCN(C(=O)c1cccc(C)c1-c1nnc(C)o1)[C@@H](C)COc1cnc(C(F)(F)F)cn1` [Example 15], the Kb on human Orexin 1 receptor (0.5 nM Orexin A) stood at 1.3 nM; at human Orexin 1 receptor (50 nM Orexin A), 2.3 nM. In series [3], the half-life at 1 μM worked out at 1.52 h.

Consider `CCN(C(=O)c1ccc(OC)cc1-n1nccn1)[C@@H](C)COc1cnc(C(F)(F)F)cn1` [Example 18], for which the Kb amounted to 1.7 nM at human Orexin 1 receptor (0.5 nM Orexin A) and 1.8 nM on human Orexin 1 receptor (50 nM Orexin A). Moreover, the half-life at 1 μM in series [3] was found to be 1.18 h.

Regarding `CCN(C(=O)c1cccc(F)c1-n1nccn1)[C@@H](C)COc1cnc(C(F)(F)F)cn1` [Example 22], the Kb on human Orexin 1 receptor (0.5 nM Orexin A) and at human Orexin 1 receptor (50 nM Orexin A) was 2.1 nM each time. Moreover, the half-life at 1 μM in series [3] was greater than 2.17 h.

Take `CCN(C(=O)c1ccc(Cl)cc1-n1nccn1)[C@@H](C)COc1cnc(C(F)(F)F)cn1` [Example 24]: the results for the Kb on human Orexin 1 receptor (0.5 nM Orexin A) and on human Orexin 1 receptor (50 nM Orexin A) were 1.1 nM and 1 nM, respectively. For the same compound, in series [3], the half-life at 1 μM is 1.52 h.

As to `CCN(C(=O)c1ccc(C(F)(F)F)cc1-n1nccn1)[C@@H](C)COc1cnc(C(F)(F)F)cn1` [Example 25], on human Orexin 1 receptor (0.5 nM Orexin A), the Kb was 12 nM. For the same compound, the half-life at 1 μM in series [3] was 0.383 h.

With `CCN(C(=O)c1ccc(F)cc1-c1ncccn1)[C@@H](C)COc1cnc(C(F)(F)F)cn1` [Example 27], at human Orexin 1 receptor (0.5 nM Orexin A), the Kb stood at 1 nM. Besides, in series [3], the half-life at 1 μM is greater than 2.17 h and the “stability in human liver microsomes compared with closest prior art compounds in WO2016/034882 (in words)” value is reported as “markedly improved stability”.

In the case of `CCN(C(=O)c1ccccc1-c1nc(C)no1)[C@@H](C)COc1cnc(C(F)(F)F)cn1` [Example 28], the Kb at human Orexin 1 receptor (0.5 nM Orexin A) was determined as 3.9 nM. The half-life at 1 μM in series [3] is 0.65 h.

Turning to `CCN(C(=O)c1cccc(F)c1-c1ncccn1)[C@@H](C)COc1cnc(C(F)(F)F)cn1` [Example 29], the Kb at human Orexin 1 receptor (0.5 nM Orexin A) was 0.64 nM; on human Orexin 1 receptor (50 nM Orexin A), 0.51 nM. In addition, the half-life at 1 μM in series [3] was greater than 2.17 h. Further, the “stability in human liver microsomes compared with closest prior art compounds in WO2016/034882 (in words)” value in series [3] is given as “markedly improved stability”.

`CCN(C(=O)c1ccccc1-c1ncccn1)[C@@H](C)COc1cnc(C(F)(F)F)cn1` [Example 30]: on human Orexin 1 receptor (0.5 nM Orexin A), the Kb came out at 0.55 nM. Moreover, on human Orexin 1 receptor (50 nM Orexin A), the Kb was determined as 0.63 nM. In addition, in series [3], the half-life at 1 μM was greater than 2.17 h and the “stability in human liver microsomes compared with closest prior art compounds in WO2016/034882 (in words)” value is “markedly improved stability”.

In the case of `CCN(C(=O)c1ccccc1-c1noc(C)n1)[C@@H](C)COc1cnc(C(F)(F)F)cn1` [Example 32], on human Orexin 1 receptor (0.5 nM Orexin A), the Kb worked out at 2.1 nM. In series [3], the half-life at 1 μM was 1.1 h.

Turning to `CCN(C(=O)c1ccc(F)c(F)c1-n1nccn1)[C@@H](C)COc1cnc(C(F)(F)F)cn1` [Example 33], at human Orexin 1 receptor (0.5 nM Orexin A), the Kb turned out to be 2.5 nM. Also, the half-life at 1 μM in series [3] is greater than 2.17 h.

By IC50 is commonly meant the midpoint of a concentration-inhibition curve.
